What was measured:
[1] = system: embryonic stem cells; assay: Annexin V-FITC apoptosis detection (FACS); format: cell-based, human; conditions: for apoptosis of undifferentiated cells: 18 hours, 20 μM PluriSIn #1 or 100 nm A939572
Experimental: For quantification of apoptosis, an Annexin V-FITC Apoptosis Detection Kit (eBioscience) was used. […] Dissociated cells were suspended at a final concentration of 2-5×10^5 cells/ml, and treated according to the manufacturer's instructions. Analysis was performed using LSR II FACS with FCS Express software.
The finding of gene expression associated with apoptosis is consistent with previous reports that pluripotent cells are prone to apoptosis [Qin et al., Journal of Biological Chemistry 282:5842-5852 (2007); Momcilovic et al., PloS One 5:e13410 (2010)]. However, pluripotent cells have also been reported to be susceptible to other types of cell death, such as oncosis [Tan et al., Stem Cells 27:1792-1801 (2009)] and autophagy [Alexander et al., PNAS 108:15828-15833 (2011)]. An Annexin V-FITC detection assay and immunoblotting for caspase-3 (a hallmark executioner of apoptosis) were therefore used in order to confirm that the massive hPSC death induced by PluriSIn #1 is indeed apoptosis.

[2] = system: spliced isoform sXBP1 in ES-derived differentiated cells; assay: sXBP1 quantitative PCR, differentiated cells; format: cell-based, human; conditions: 20 μM PluriSIn #1 or 100 nm A939572
[3] = system: hPSC-derived teratomas; assay: Teratoma formation from pre-treated hPSCs in NOD-SCID IL2Rγ−/− mice; format: in vivo, mouse; conditions: for teratoma formation at the side injected with pre-treated cells: cells pre-treated before injection into mice; for Incidence of teratoma formation, undifferentiated cells only: hPSCs pre-treated 48 h with 20 μM
Experimental: Human embryonic stem cell and induced pluripotent stem cell lines were cultured without feeder cells in CELLSTAR® 6-well tissue culture plates (Greiner Bio-One) pre-coated with Matrigel™, using mTeSR1 defined medium. Cells were treated for 24 hours with either 20 μM PluriSIn #1 (isonicotinic acid N′-phenylhydrazide) in 0.2% DMSO or with 0.2% DMSO, followed by medium replacement and a second treatment for another 24 hours. 48 hours after initial exposure to the tested compound, cells were harvested with trypsin-EDTA and resuspended in a 1:1 mTeSR1:Matrigel™ mixture to a total volume of 200 μl. Cells were then injected subcutaneously to the back of NOD-SCID IL2Rγ−/− mice (Jackson Laboratory). Six weeks after injection mice were sacrificed, the formation of tumors was examined, and the resulting teratomas were photographed, dissected and cryopreserved in O.C.T. compound (Sakura Finetek, Torrance, Calif.).
Alternatively, human embryonic stem cells and induced pluripotent stem cells were spontaneously differentiated in culture for a period of 10 days, by growing them on gelatin-coated culture plates with 85% knockout DMEM medium supplemented with 15% knockout serum replacement, 1 mM glutamine, 0.1 mM β-mercaptoethanol, 1% nonessential amino acids, penicillin (50 U/ml) and streptomycin (50 μg/ml), without basic fibroblast growth factor (bFGF). Retinoic acid was added to the medium at a final concentration of 1 μM. 10 days later, the differentiated cells were harvested and plated at a 1:1 ratio with their undifferentiated parental cells in CELLSTAR® 6-well tissue culture plates (Greiner Bio-One) pre-coated with Matrigel™, with mTeSR1 defined medium. Cells were treated for 24 hours with either 20 μM PluriSIn #1 or 0.2% DMSO, followed by medium replacement and a second treatment for another 24 hours. 48 hours after initial exposure to the compound, cells were harvested with trypsin-EDTA and counted using a Countess automated cell counter (Invitrogen). 1 million viable cells from each condition were resuspended in a 1:1 mTeSR1:Matrigel™ mixture to a total volume of 200 μl. Cells were then injected subcutaneously to the back of NOD-SCID IL2Rγ−/− mice. Each mouse was injected with PluriSIn #1-treated cells into one side of its body and control-treated cells into the other side. Six weeks after injection mice were sacrificed, the formation of tumors was examined, and the resulting teratomas were photographed, dissected and cryopreserved in O.C.T. compound.
To evaluate in vivo tumorigenicity, hPSCs were cultured under the abovementioned conditions in the presence or absence of PluriSIn #1, and the cultures were then injected subcutaneously into immuno-compromised NOD-SCID IL2Rγ−/− mice, which have been previously reported to be especially susceptible to human-derived tumors [Quintana et al., Nature 456:593-598 (2008)]. Mice were sacrificed after 4-6 weeks, and teratoma formation was then assessed.
Similarly, CSES2-SO2 and BJ-iPS28 cell lines were injected into immune-compromised mice (2 mice for each cell line), with control cells and treated cells being injected into the two body sides of the same animal.
The effect of PluriSIns was on teratoma formation was then evaluated in a model designed to simulate a clinical setting. Human ES and iPS cells were spontaneously differentiated in culture for a period of 10 days, and the differentiated cells were then harvested and plated together with undifferentiated cells, in a 1:1 mixture of undifferentiated and differentiated cells, as described in the Materials and Methods section. Following a 48 hour exposure to PluriSIn #1, cells were harvested and injected subcutaneously into NOD-SCID IL2Rγ−/− mice, with each mouse being injected with PluriSin #1-treated cells into one side of its body and with control cells into the other side. The same total number of cells was injected into both sides.

[4] = system: spliced isoform sXBP1 in human ES cells; assay: sXBP1 quantitative PCR, ES cells; format: cell-based; conditions: 20 μM PluriSIn #1 (12 hours) or 100 nm A939572
[5] = system: undifferentiated CSES2-SO2/3 embryonic stem cells; assay: Fluorescence microscopy imaging of undifferentiated CSES2-SO2/3 cells; format: cell-based, human; conditions: for effect on undifferentiated cells: 24 hours of exposure
Experimental: High content imaging of CSES2-SO2/3 fluorescent cells (mCherry+ or EGFP+) was performed in black clear-bottom 384-well assay plates (Falcon BD), using the Opera high-content screen imaging platform (PerkinElmer). Otherwise, light and fluorescence imaging of all cells was performed in 24-well, 6-well or 10 cm CELLSTAR® plates (Greiner Bio-One), using an Olympus CellR imaging station. Light imaging of developing mouse embryos was performed in 35 mm culture dishes (Falcon BD), using an Olympus IX70 microscope.
CSES2-SO2/3 is a genetically-labeled cell line that expresses mCherry under the promoter of the pluripotency hallmark gene OCT-4, and GFP under the promoter of the early endodermal marker SOX17. Therefore, these cells are red while undifferentiated, and become green upon their differentiation into the endodermal lineage [Kopper & Benvenisty, Stem Cell Research 8:335-345 (2011)]. Green early endodermal progenitor cells were generated from the red undifferentiated cells, using an 8-day differentiation protocol as described by Duan et al. [Stem Cells 28:674-686 (2010)].
In order to further verify the selectivity of the PluriSIns, and rule out any potential assay-related interference, undifferentiated and differentiated CSES2-SO2/3 cells were subjected to microscopy imaging after 24 hours of exposure to PluriSIns.

CNC(=O)c1cccc(NC(=O)N2CCC(Oc3ccccc3Cl)CC2)c1 [A939572, 4-(2-chlorophenoxy)-N-(3-(methylcarbamoyl)-phenyl)piperidine-1-carboxamide, reference compound]
apoptosis of undifferentiated cells [1]: enhanced apoptosis
expression of spliced isoform sXBP1, differentiated cells [2]: did not increase expression
teratoma formation at the side injected with pre-treated cells [3]: protective effect against teratoma formation
increase in expression of spliced isoform sXBP1, ES cells [4]: approximately 2 fold

O=C(NNc1ccccc1)c1ccncc1 [PluriSIn #1, isonicotinic acid N′-phenylhydrazide]
increase in number of apoptotic cells ([1]; 20 μM, 16 hours post-treatment): approximately 7 fold
apoptosis of undifferentiated cells [1]: enhanced apoptosis
expression of spliced isoform sXBP1, differentiated cells [2]: did not increase
effect on undifferentiated cells [5]: eliminated undifferentiated cells
effect on undifferentiated cells in a mixture of differentiated and undifferentiated cells ([5]; mixture of CSES2-SO2/3 ES and derived differentiated cells): also eliminated undifferentiated cells
Incidence of teratoma formation, 1:1 mixture of undifferentiated and differentiated cells ([3]; cells pre-treated 48 h with 20 μM, injected subcutaneously): 0/4
teratoma formation at the side injected with pre-treated cells [3]: no teratoma is visible
Incidence of teratoma formation, undifferentiated cells only ([3]; injected subcutaneously): 11/11
Incidence of teratoma formation, undifferentiated cells only ([3]; injected subcutaneously, listed as PluriSn #1): 0/11
mice that developed teratomas, H9 ES cells ([3]; treated H9 ES cells injected): 0/3
increase in expression of spliced isoform sXBP1, ES cells [4]: approximately 3.5 fold

Cc1ccc(NNC(=O)C(O)(c2ccccc2)c2cccs2)cc1 (stereo not shown) [PluriSIn #6, 2-hydroxy-2-(thiophen-2-yl)-2-phenylacetic acid 4-methyl-N′-phenylhydrazide]
effect on undifferentiated cells [5]: eliminated the red undifferentiated cells
